Measurements taken from ChEMBL document CHEMBL5131383, “Structure-based design, synthesis, and evaluation of inhibitors with high selectivity for PARP-1 over PARP-2” (Eur J Med Chem, 2022).
The source made the active and inactive calls. The rule behind the calls is not given here.

Key:
MX1 = assay: Antiproliferative activity against human BRCA mutant MX1 cells assessed as inhibition of cell growth incubated for 48 hrs by MTT assay; format: functional, cell-based; conditions: MX1, 48 h
[1] = Toxicity athymic BALB/c mouse xenografted with human BRCA1 mutant MDA-MB-436 cells assessed as change in body weight at 50 mg/kg/day, po administered for 18 days and measured twice weekly; format: organism-based; conditions: in vivo, 432 h, time 18 day
[2] = molecular target: T1, Poly [ADP-ribose] polymerase 1 (Homo sapiens, UniProt P09874); assay: Inhibition of human PARP1 using NAD+ as substrate incubated for 1 hr by ELISA
Mus musculus = assay: In vivo inhibition of PARP1 in athymic BALB/c mouse xenografted with human BRCA1 mutant MDA-MB-436 cells assessed as prevention of PAR formation 50 mg/kg/day, po measured after 48 hrs by Western blot analysis; format: functional, organism-based
[3] = molecular target: T1, Poly [ADP-ribose] polymerase 1; assay: Inhibition of human PARP1 using NAD+ as substrate at 5 nM incubated for 1 hr by ELISA relative to control
A549 [4] = assay: Antiproliferative activity against human A549 cells assessed as inhibition of cell growth incubated for 48 hrs by MTT assay; format: functional, cell-based; conditions: A549, 48 h
MCF7 = assay: Antiproliferative activity against human MCF7 cells assessed as inhibition of cell growth incubated for 48 hrs by MTT assay; format: functional, cell-based; conditions: MCF7, 48 h
[5] = molecular target: T2, Poly [ADP-ribose] polymerase 2 (Homo sapiens, UniProt Q9UGN5); assay: Inhibition of human PARP2 using NAD+ as substrate at 5 nM incubated for 1 hr by ELISA relative to control
[6] = molecular target: T2, Poly [ADP-ribose] polymerase 2; assay: Inhibition of human PARP2 using NAD+ as substrate incubated for 1 hr by ELISA
MDA-MB-436 = assay: Antitumor activity against human BRCA1 mutant MDA-MB-436 cells xenografted athymic BALB/c mouse assessed as inhibition of tumor volume at 50 mg/kg/day, po administered for 18 days and measured twice weekly; format: functional, organism-based; conditions: time 18.0 day
Homo sapiens = species on record: Homo sapiens; assay: Selectivity index, ratio of IC50 for human PARP2 to IC50 for human PARP1
A549 [7] = assay: […] human A549 cells assessed as reduction in PAR level measured after 48 hrs by Western blot analysis; format: functional, cell-based; conditions: dose 2.5-10 µM, DDE = dose-dependent effect

T2 sequence (Q9UGN5 whole entry): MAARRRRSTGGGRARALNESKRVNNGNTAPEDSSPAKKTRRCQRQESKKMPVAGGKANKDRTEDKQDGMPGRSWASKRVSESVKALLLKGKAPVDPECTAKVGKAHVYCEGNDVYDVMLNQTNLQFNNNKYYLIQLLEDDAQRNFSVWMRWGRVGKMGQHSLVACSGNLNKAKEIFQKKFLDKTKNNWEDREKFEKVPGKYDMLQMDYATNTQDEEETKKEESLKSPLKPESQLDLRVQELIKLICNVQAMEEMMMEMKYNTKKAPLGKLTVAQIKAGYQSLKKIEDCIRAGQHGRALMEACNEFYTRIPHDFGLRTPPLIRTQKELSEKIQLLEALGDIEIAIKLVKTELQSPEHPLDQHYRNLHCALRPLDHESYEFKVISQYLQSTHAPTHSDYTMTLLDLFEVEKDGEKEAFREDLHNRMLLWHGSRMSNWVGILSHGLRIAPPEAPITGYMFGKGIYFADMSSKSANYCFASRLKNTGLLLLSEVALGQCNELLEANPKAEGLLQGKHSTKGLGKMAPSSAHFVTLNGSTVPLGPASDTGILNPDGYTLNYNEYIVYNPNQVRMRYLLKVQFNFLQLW
T1 sequence (P09874 whole entry): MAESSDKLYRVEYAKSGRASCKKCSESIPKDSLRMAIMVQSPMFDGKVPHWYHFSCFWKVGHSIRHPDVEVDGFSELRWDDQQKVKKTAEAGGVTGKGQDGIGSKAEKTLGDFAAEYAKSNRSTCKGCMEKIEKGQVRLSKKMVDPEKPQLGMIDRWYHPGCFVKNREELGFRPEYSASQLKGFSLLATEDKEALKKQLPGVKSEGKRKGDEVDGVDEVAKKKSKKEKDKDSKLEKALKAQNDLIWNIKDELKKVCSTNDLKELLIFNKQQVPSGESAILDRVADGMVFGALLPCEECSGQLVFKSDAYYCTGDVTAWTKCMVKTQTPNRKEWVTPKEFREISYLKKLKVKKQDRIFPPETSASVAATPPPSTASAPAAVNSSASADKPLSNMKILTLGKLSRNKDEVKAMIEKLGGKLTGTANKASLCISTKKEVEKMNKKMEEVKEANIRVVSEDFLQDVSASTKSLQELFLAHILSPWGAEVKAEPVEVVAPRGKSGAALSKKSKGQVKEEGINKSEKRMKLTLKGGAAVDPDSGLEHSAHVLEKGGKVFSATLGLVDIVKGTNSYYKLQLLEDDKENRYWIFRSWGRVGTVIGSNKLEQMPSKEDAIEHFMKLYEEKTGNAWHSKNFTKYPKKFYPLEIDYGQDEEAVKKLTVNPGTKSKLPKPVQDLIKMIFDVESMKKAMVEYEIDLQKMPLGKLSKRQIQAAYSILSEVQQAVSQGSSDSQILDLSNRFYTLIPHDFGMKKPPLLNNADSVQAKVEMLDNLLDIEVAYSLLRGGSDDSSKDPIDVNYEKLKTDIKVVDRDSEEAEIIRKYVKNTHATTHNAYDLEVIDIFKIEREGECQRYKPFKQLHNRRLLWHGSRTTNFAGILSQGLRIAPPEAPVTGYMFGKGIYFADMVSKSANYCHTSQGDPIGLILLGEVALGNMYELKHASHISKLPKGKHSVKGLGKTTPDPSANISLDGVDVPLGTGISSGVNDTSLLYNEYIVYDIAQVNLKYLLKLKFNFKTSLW

inhibition [3] [%]	inhibition [5] [%]	Structure (SMILES)	also measured
90.4	58.8	C[C@@H]1CN(Cc2ccc(-c3[nH]c4cc(F)cc5c4c3CCNC5=O)cc2)CCN1	IC50 (MX1): 16800 nM; Activity [1]: Toxic; IC50 [2]: 0.66 nM; inhibition (Mus musculus): Active; IC50 (A549 [4]): 48200 nM; IC50 (MCF7): 46500 nM; IC50 [6]: 2.91 nM; Activity (MDA-MB-436): Active
88.7	55.5	O=C1NCCc2c(-c3ccc([N+](=O)[O-])cc3)[nH]c3cc(F)cc1c23	–
56.2	42.3	CC(C)(C)c1ccc(-c2[nH]c3cc(F)cc4c3c2CCNC4=O)cc1	–
89.9	45.2	CC1(N)CCN(Cc2ccc(-c3[nH]c4cc(F)cc5c4c3CCNC5=O)cc2)CC1	–
85	44.1	O=C1NCCc2c(-c3ccc(CN4CCN(C(=O)C5CC5)CC4)cc3)[nH]c3cc(F)cc1c23	–
16.3	49.4	C[C@@H]1CN(Cc2cccc(-c3[nH]c4cc(F)cc5c4c3CCNC5=O)c2)CCN1C(=O)OC(C)(C)C	–
50.6	36.4	O=C1NCCc2c(-c3ccc(OCc4ccccc4)cc3)[nH]c3cc(F)cc1c23	–
44.9	43.3	O=C(O)c1cccc(-c2[nH]c3cc(F)cc4c3c2CCNC4=O)c1	–
49.8	30.4	CC(=O)N1CCN(Cc2cccc(-c3[nH]c4cc(F)cc5c4c3CCNC5=O)c2)CC1	–
87	40.5	CC1(NC(=O)OC(C)(C)C)CCN(Cc2ccc(-c3[nH]c4cc(F)cc5c4c3CCNC5=O)cc2)CC1	–
87.9	33.5	NC1CCCN(Cc2ccc(-c3[nH]c4cc(F)cc5c4c3CCNC5=O)cc2)C1 (stereo unspecified)	–
74.2	33.8	CC(C)(C)OC(=O)N1CCN(Cc2ccc(-c3[nH]c4cc(F)cc5c4c3CCNC5=O)cc2)CC1	–
78.3	50.2	C[C@@H]1CN(Cc2cccc(-c3[nH]c4cc(F)cc5c4c3CCNC5=O)c2)CCN1	–
76.3	58.9	Nc1cccc(-c2[nH]c3cc(F)cc4c3c2CCNC4=O)c1	–
76.5	40.7	CC(C)(C)OC(=O)NC1CCN(Cc2cccc(-c3[nH]c4cc(F)cc5c4c3CCNC5=O)c2)CC1	–
83.9	36.5	CC(C)N1CCN(Cc2ccc(-c3[nH]c4cc(F)cc5c4c3CCNC5=O)cc2)CC1	–
82.8	49.4	COc1ccc(-c2[nH]c3cc(F)cc4c3c2CCNC4=O)cc1	–
59.7	41.8	CC1(NC(=O)OC(C)(C)C)CCN(Cc2cccc(-c3[nH]c4cc(F)cc5c4c3CCNC5=O)c2)CC1	–
69.3	20.5	O=C1NCCc2c(-c3ccc(CN4CCCC(F)(F)C4)cc3)[nH]c3cc(F)cc1c23	–
38.4	24.3	O=C1NCCc2c(-c3cccc(CN4CCC(F)(F)CC4)c3)[nH]c3cc(F)cc1c23	–
68.8	18	O=C1NCCc2c(-c3ccc(CN4CCC(F)(F)CC4)cc3)[nH]c3cc(F)cc1c23	–
82	42.4	CC(C)(C)OC(=O)NC1CCN(Cc2ccc(-c3[nH]c4cc(F)cc5c4c3CCNC5=O)cc2)CC1	Ratio IC50 (Homo sapiens): 6.9; IC50 [2]: 1.17 nM; IC50 [6]: 8.04 nM
88.9	54.2	O=C1NCCc2c(-c3ccc(N4CCOCC4)cc3)[nH]c3cc(F)cc1c23	–
64.8	13.1	NC1CCCN(Cc2cccc(-c3[nH]c4cc(F)cc5c4c3CCNC5=O)c2)C1 (stereo unspecified)	–
26.5	36.8	O=C1NCCc2c(-c3ccc(CN4CCN(C(c5ccccc5)c5ccccc5)CC4)cc3)[nH]c3cc(F)cc1c23	–
56.6	29	CC(C)N1CCN(Cc2cccc(-c3[nH]c4cc(F)cc5c4c3CCNC5=O)c2)CC1	–
69.1	23.5	O=C1NCCc2c(-c3ccc(CN4CCn5c(nnc5C(F)(F)F)C4)cc3)[nH]c3cc(F)cc1c23	–

inhibition [3] [%]	inhibition [5] [%]	Structure (SMILES)	also measured
93.7	47	O=C1NCCc2c(-c3ccc(CN4CCN(c5ncccn5)CC4)cc3)[nH]c3cc(F)cc1c23	Ratio IC50 (Homo sapiens): 4.8; IC50 [2]: 1.19 nM; IC50 [6]: 5.71 nM
43.2	48.1	O=C(O)c1ccc(-c2[nH]c3cc(F)cc4c3c2CCNC4=O)cc1	–
48.4	24.4	O=C1NCCc2c(-c3cccc(CN4CCn5c(nnc5C(F)(F)F)C4)c3)[nH]c3cc(F)cc1c23	–
55.6	43.2	CC(C)(C)OC(=O)NC1CCCN(Cc2cccc(-c3[nH]c4cc(F)cc5c4c3CCNC5=O)c2)C1 (stereo unspecified)	–
46.1	20.7	O=C1NCCc2c(-c3cccc(CN4CCN(C(=O)C5CC5)CC4)c3)[nH]c3cc(F)cc1c23	–
82.9	28.7	CC(=O)N1CCN(Cc2ccc(-c3[nH]c4cc(F)cc5c4c3CCNC5=O)cc2)CC1	Ratio IC50 (Homo sapiens): 4.9; IC50 [2]: 1.31 nM; IC50 [6]: 6.4 nM
61.2	29	CN1CCN(Cc2cccc(-c3[nH]c4cc(F)cc5c4c3CCNC5=O)c2)CC1	–
83.3	50.1	COC(=O)c1ccc(-c2[nH]c3cc(F)cc4c3c2CCNC4=O)cc1	–
86.5	36.3	CCOC(=O)C1CCCN(Cc2ccc(-c3[nH]c4cc(F)cc5c4c3CCNC5=O)cc2)C1 (stereo unspecified)	–
90.1	34.8	CC(C)(C)OC(=O)NC1CCCN(Cc2ccc(-c3[nH]c4cc(F)cc5c4c3CCNC5=O)cc2)C1 (stereo unspecified)	–
93.6	57.8	O=Cc1ccc(-c2[nH]c3cc(F)cc4c3c2CCNC4=O)cc1	–
84.5	46	Nc1ccc(-c2[nH]c3cc(F)cc4c3c2CCNC4=O)cc1	–
94.1	53.4	N#Cc1ccc(-c2[nH]c3cc(F)cc4c3c2CCNC4=O)cc1	–
94	35.2	CCN(CC)Cc1ccc(-c2[nH]c3cc(F)cc4c3c2CCNC4=O)cc1	IC50 (MX1): 49300 nM; IC50 [2]: 0.61 nM; IC50 (A549 [4]): 75800 nM; IC50 (MCF7): 80600 nM; IC50 [6]: 11.2 nM
79.2	21.3	CC1(N)CCN(Cc2cccc(-c3[nH]c4cc(F)cc5c4c3CCNC5=O)c2)CC1	–
22.1	17.3	O=C1NCCc2c(-c3ccc(CN4CCN(c5cccc(C(F)(F)F)c5)CC4)cc3)[nH]c3cc(F)cc1c23	–
31.2	20.3	C[C@@H]1CN(Cc2ccc(-c3[nH]c4cc(F)cc5c4c3CCNC5=O)cc2)CCN1C(=O)OC(C)(C)C	–
93.2	54.6	Cc1ccc(-c2[nH]c3cc(F)cc4c3c2CCNC4=O)cc1[N+](=O)[O-]	–
95.7	63.8	NC1CCN(Cc2ccc(-c3[nH]c4cc(F)cc5c4c3CCNC5=O)cc2)CC1	IC50 (MX1): 65400 nM; IC50 [2]: 0.41 nM; IC50 (A549 [4]): 85900 nM; IC50 (MCF7): 59500 nM; IC50 [6]: 4.21 nM
98	77.6	CNCc1ccc(-c2[nH]c3cc(F)cc4c3c2CCNC4=O)cc1 [RUCAPARIB]	IC50 (MX1): 6510 nM; inhibition (Mus musculus): Active; IC50 (A549 [4]): 32200 nM; IC50 (MCF7): 6610 nM
72	35.9	COc1cccc(-c2[nH]c3cc(F)cc4c3c2CCNC4=O)c1	–
47.2	29.7	Cc1cc(N2CCN(Cc3ccc(-c4[nH]c5cc(F)cc6c5c4CCNC6=O)cc3)CC2)n(-c2ccccc2)n1	–
83.1	42	CN1CCN(Cc2ccc(-c3[nH]c4cc(F)cc5c4c3CCNC5=O)cc2)CC1	–
85.8	15.3	NC1CCN(Cc2cccc(-c3[nH]c4cc(F)cc5c4c3CCNC5=O)c2)CC1	IC50 (MX1): 9460 nM; Activity [1]: Non-Toxic; IC50 [2]: 0.96 nM; inhibition (Mus musculus): Active; IC50 (A549 [4]): 106000 nM; Activity (A549 [7]): Dde; IC50 (MCF7): 124000 nM; IC50 [6]: 61.9 nM; Activity (MDA-MB-436): Active
84.5	25.1	O=C1NCCc2c(-c3ccc(CN4CCN(CCO)CC4)cc3)[nH]c3cc(F)cc1c23	Ratio IC50 (Homo sapiens): 4.3; IC50 [2]: 1.54 nM; IC50 [6]: 6.68 nM
83.9	55.8	O=C1NCCc2c(-c3ccc(N4CCNCC4)cc3)[nH]c3cc(F)cc1c23	–
67.4	42.7	O=C1NCCc2c(-c3ccc(B(O)O)cc3)[nH]c3cc(F)cc1c23	–
